{"source": "patent US20030203966A1", "about": "“Nitromethylthiobenzene derivatives as aldose reductase inhihibitors” (priority 1996, published 2003)", "note": "Structures can show the parent of a compound that is named as a salt."}
{"compound": "Cc1cc(NS(=O)(=O)Cc2ccccc2[N+](=O)[O-])cc(C)c1S(=O)(=O)C[N+](=O)[O-]", "melting point": "189 to 190 °C"}
{"compound": "Cc1cc(NC(=O)CCCCCCC(=O)Nc2cc(C)c(S(=O)(=O)C[N+](=O)[O-])c(C)c2)cc(C)c1S(=O)(=O)C[N+](=O)[O-]", "melting point": "235 to 238 °C"}
{"compound": "Cc1cc(NC(=O)CCCC(=O)Nc2cc(C)c(S(=O)(=O)C[N+](=O)[O-])c(C)c2)cc(C)c1S(=O)(=O)C[N+](=O)[O-]", "melting point": "207 to 210 °C"}
{"compound": "Cc1cc(NS(=O)(=O)c2cccc(S(=O)(=O)Nc3cc(C)c(S(=O)(=O)C[N+](=O)[O-])c(C)c3)c2)cc(C)c1S(=O)(=O)C[N+](=O)[O-]", "melting point": "191 to 192 °C"}
{"compound": "Cc1cc(NC(=O)C(=O)Nc2cc(C)c(S(=O)(=O)C[N+](=O)[O-])c(C)c2)cc(C)c1S(=O)(=O)C[N+](=O)[O-]", "melting point": "246 to 248 °C"}
{"compound": "O=C(CCCC(=O)Nc1ccc(S(=O)(=O)C[N+](=O)[O-])cc1)Nc1ccc(S(=O)(=O)C[N+](=O)[O-])cc1", "melting point": "203 to 205 °C"}
{"compound": "Cc1cc(N(C(=O)CCC(N)=O)c2cc(C)c(S(=O)(=O)C[N+](=O)[O-])c(C)c2)cc(C)c1S(=O)(=O)C[N+](=O)[O-]", "melting point": "226 to 228 °C"}
{"compound": "Cc1cc(NC(=O)CC(=O)Nc2cc(C)c(S(=O)(=O)C[N+](=O)[O-])c(C)c2)cc(C)c1S(=O)(=O)C[N+](=O)[O-]", "melting point": "197 to 199 °C"}
{"compound": "Cc1cc(NC(=O)Nc2cc(C)c(S(=O)(=O)C[N+](=O)[O-])c(C)c2)cc(C)c1S(=O)(=O)C[N+](=O)[O-]", "melting point": "224 to 226 °C"}
{"compound": "Cc1cc(NS(=O)(=O)Cc2cccc(CS(=O)(=O)Nc3cc(C)c(S(=O)(=O)C[N+](=O)[O-])c(C)c3)c2)cc(C)c1S(=O)(=O)C[N+](=O)[O-]", "melting point": "124 to 130 °C"}
{"compound": "Cc1cc(NS(=O)(=O)c2cc(F)c(Br)cc2F)cc(C)c1S(=O)(=O)C[N+](=O)[O-]", "note": "(as salt: acetate) [Example 27, 4-Bromo-2,5-difluoro-N-[3,5-dimethyl-4-[(nitromethyl)-sulphonyl]phenyl]benzenesulphonamide]", "melting point": "167 to 169 °C"}
{"compound": "Cc1cc(NS(C)(=O)=O)cc(C)c1S(=O)(=O)C[N+](=O)[O-]", "note": "(as salt: acetate) [Example 40, N-[3,5-Dimethyl-4-[(nitromethyl)sulphonyl]phenyl]-methanesulphonamide]", "melting point": "138 to 140 °C"}
{"compound": "Cc1cc(NS(=O)(=O)c2ccccc2)cc(C)c1SC[N+](=O)[O-]", "note": "[Example 3, N-[3,5-Dimethyl-4-[(nitromethyl)thio]phenyl]benzenesulphonamide]", "melting point": "146 to 148 °C"}
{"compound": "Cc1cc(NS(=O)(=O)c2ccccc2)cc(C)c1[S+]([O-])C[N+](=O)[O-]", "note": "(centres unmarked) [Example 4, N-[3,5-Dimethyl-4-[(nitromethyl)sulphinyl]phenyl]-benzenesulphonamide]", "melting point": "> 50 °C (dec.)"}
{"compound": "Cc1cc(NS(=O)(=O)c2ccc(Cl)cc2)cc(C)c1S(=O)(=O)C[N+](=O)[O-]", "note": "[Example 5, 4-Chloro-N-[3,5-dimethyl-4-[(nitromethyl)sulphonyl]-phenyl]benzenesulphonamide]", "melting point": "160 to 162 °C"}
{"compound": "Cc1cccc(S(=O)(=O)Nc2cc(C)c(S(=O)(=O)C[N+](=O)[O-])c(C)c2)c1", "note": "[Example 6, N-[3,5-Dimethyl-4-[(nitromethyl)sulphonyl]phenyl]-3-methylbenzenesulphonamide]", "melting point": "179 to 181 °C"}
{"compound": "Cc1ccc(S(=O)(=O)Nc2cc(C)c(S(=O)(=O)C[N+](=O)[O-])c(C)c2)cc1", "note": "[Example 7, N-[3,5-Dimethyl-4-[(nitromethyl)sulphonyl]phenyl]-4-methylbenzenesulphonamide]", "melting point": "163 to 165 °C"}
{"compound": "Cc1cc(NS(=O)(=O)c2ccc(F)cc2F)cc(C)c1S(=O)(=O)C[N+](=O)[O-]", "note": "[Example 8, 2,4-Difluoro-N-[3,5-dimethyl-4-[(nitromethyl)sulphonyl]phenyl]benzenesulphonamide]", "melting point": "154 to 156 °C"}
{"compound": "Cc1cc(NS(=O)(=O)c2cccc(C(F)(F)F)c2)cc(C)c1S(=O)(=O)C[N+](=O)[O-]", "note": "[Example 9, N-[3,5-Dimethyl-4-[(nitromethyl)sulphonyl]phenyl]-3-(trifluoromethyl)benzenesulphonamide]", "melting point": "146 to 148 °C"}
{"compound": "Cc1cc(NS(=O)(=O)c2ccc3ccccc3c2)cc(C)c1S(=O)(=O)C[N+](=O)[O-]", "note": "[Example 15, N-[3,5-Dimethyl-4-[(nitromethyl)sulphonyl]phenyl]-2-naphthalenesulphonamide]", "melting point": "208 to 215 °C"}
{"compound": "Cc1cc(NS(=O)(=O)c2ccccc2Br)cc(C)c1S(=O)(=O)C[N+](=O)[O-]", "note": "[Example 17, 2-Bromo-N-[3,5-dimethyl-4-[(nitromethyl)sulphonyl]-phenyl]benzenesulphonamide]", "melting point": "140 to 142 °C"}
{"compound": "Cc1cc(NS(=O)(=O)c2ccc(S(C)(=O)=O)cc2)cc(C)c1S(=O)(=O)C[N+](=O)[O-]", "note": "[Example 18, N-[3,5-Dimethyl-4-[(nitromethyl)sulphonyl]phenyl]-4-(methylsulphonyl)benzenesulphonamide]", "melting point": "192 to 194 °C"}
{"compound": "Cc1cc(NS(=O)(=O)/C=C/c2ccccc2)cc(C)c1S(=O)(=O)C[N+](=O)[O-]", "note": "[Example 19, (E)-N-[3,5-Dimethyl-4-[(nitromethyl)sulphonyl]phenyl]-styrenesulphonamide]", "melting point": "174 to 176 °C"}
{"compound": "Cc1ccccc1S(=O)(=O)NC(=O)Nc1cc(C)c(S(=O)(=O)C[N+](=O)[O-])c(C)c1", "note": "[Example 20, 1-[3,5-Dimethyl-4-[(nitromethyl)sulphonyl]phenyl]-3-[(2-methylphenyl)sulphonyl]urea]", "melting point": "194 to 196 °C"}
{"compound": "Cc1ccc(S(=O)(=O)NC(=O)Nc2cc(C)c(S(=O)(=O)C[N+](=O)[O-])c(C)c2)cc1", "note": "[Example 21, 1-[3,5-Dimethyl-4-[(nitromethyl)sulphonyl]phenyl]-3-[(4-methylphenyl)sulphonyl]urea]", "melting point": "150 to 155 °C"}
{"compound": "CC(=O)Nc1ccc(S(=O)(=O)Nc2cc(C)c(S(=O)(=O)C[N+](=O)[O-])c(C)c2)cc1", "note": "[Example 22, N-[4-[3,5-Dimethyl-4-[(nitromethyl)sulphonyl]phenylsulphamoyl]phenyl]acetamide]", "melting point": "209 to 210 °C"}
{"compound": "Cc1cc(NS(=O)(=O)CC(F)(F)F)cc(C)c1S(=O)(=O)C[N+](=O)[O-]", "note": "[Example 23, N-[3,5-Dimethyl-4-[(nitromethyl)sulphonyl]phenyl]-2,2,2-trifluoroethanesulphonamide]", "melting point": "168 to 170 °C"}
{"compound": "Cc1cc(NS(=O)(=O)c2cc(F)ccc2F)cc(C)c1S(=O)(=O)C[N+](=O)[O-]", "note": "[Example 28, 2,5-Difluoro-N-[3,5-dimethyl-4-[(nitromethyl)sulphonyl]phenyl]benzenesulphonamide]", "melting point": "132 to 134 °C"}
{"compound": "Cc1cc(NS(=O)(=O)c2cccc3ccccc23)cc(C)c1S(=O)(=O)C[N+](=O)[O-]", "note": "[Example 31, N-[3,5-Dimethyl-4-[(nitromethyl)sulphonyl]phenyl]-1-naphthalenesulphonamide]", "melting point": "170 to 172 °C"}
{"compound": "Cc1cc(NS(=O)(=O)c2cccs2)cc(C)c1S(=O)(=O)C[N+](=O)[O-]", "note": "[Example 32, N-[3,5-Dimethyl-4-[(nitromethyl)sulphonyl]phenyl]-2-thiophenesulphonamide]", "melting point": "158 to 159 °C"}
{"compound": "Cc1cc(NS(=O)(=O)c2ccccc2)cc(C)c1S(=O)(=O)C(Cl)(Cl)[N+](=O)[O-]", "note": "[Example 33, N-[4-[(Dichloronitromethyl)sulphonyl]-3,5-dimethylphenyl]benzenesulphonamide]", "melting point": "112 to 114 °C"}
{"compound": "Cc1cc(NS(=O)(=O)c2ccc(C(F)(F)F)cc2)cc(C)c1S(=O)(=O)C[N+](=O)[O-]", "note": "[Example 35, N-[3,5-Dimethyl-4-[(nitromethyl)sulphonyl]phenyl]-4-(trifluoromethyl)benzenesulphonamide]", "melting point": "187 to 188 °C"}
{"compound": "Cc1cc(NS(=O)(=O)c2ccc(OC(F)(F)F)cc2)cc(C)c1S(=O)(=O)C[N+](=O)[O-]", "note": "[Example 36, N-[3,5-Dimethyl-4-[(nitromethyl)sulphonyl]phenyl]-4-(trifluoromethoxy)benzenesulphonamide]", "melting point": "180 to 182 °C"}
{"compound": "Cc1cc(NS(=O)(=O)c2c(F)c(F)c(F)c(F)c2F)cc(C)c1S(=O)(=O)C[N+](=O)[O-]", "note": "[Example 37, N-[3,5-Dimethyl-4-[(nitromethyl)sulphonyl]phenyl]-2,3,4,5,6-pentafluorobenzenesulphonamide]", "melting point": "128 to 130 °C"}
{"compound": "Cc1cc(NS(=O)(=O)c2ccc3oc4ccccc4c3c2)cc(C)c1S(=O)(=O)C[N+](=O)[O-]", "note": "[Example 38, N-[3,5-Dimethyl-4-[(nitromethyl)sulphonyl]phenyl]-2-dibenzofuransulphonamide]", "melting point": "214 to 215 °C (dec.)"}
{"compound": "Cc1cc(NS(=O)(=O)c2ccc(-c3ccccc3)cc2)cc(C)c1S(=O)(=O)C[N+](=O)[O-]", "note": "[Example 39, N-[3,5-Dimethyl-4-[(nitromethyl)sulphonyl]phenyl]-4-biphenylsulphonamide]", "melting point": "206 to 208 °C (dec.)"}
{"compound": "CC(=O)Nc1ccc(S(=O)(=O)Nc2cc(C)c(S(=O)(=O)C[N+](=O)[O-])c(C)c2)cc1Cl", "note": "[Example 43, N-[2-Chloro-4-[3,5-dimethyl-4-[(nitromethyl)sulphonyl]-phenylsulphamoyl]phenyl]acetamide]", "melting point": "209 to 211 °C"}
{"compound": "Cc1ccccc1S(=O)(=O)Nc1cc(C)c(S(=O)(=O)C[N+](=O)[O-])c(C)c1", "note": "[Example 45, N-[3,5-Dimethyl-4-[(nitromethyl)sulphonyl]phenyl]-2-methylbenzenesulphonamide]", "melting point": "118 to 120 °C"}
{"compound": "COc1cccc(S(=O)(=O)Nc2cc(C)c(S(=O)(=O)C[N+](=O)[O-])c(C)c2)c1", "note": "[Example 46, N-[3,5-Dimethyl-4-[(nitromethyl)sulphonyl]phenyl]-3-methoxybenzenesulphonamide]", "melting point": "166 to 168 °C"}
{"compound": "Cc1cc(NS(=O)(=O)c2cccnc2)cc(C)c1S(=O)(=O)C[N+](=O)[O-]", "note": "[Example 47, N-[3,5-Dimethyl-4-[(nitromethyl)sulphonyl]phenyl]-3-pyridinesulphonamide]", "melting point": "191 to 192 °C"}
{"compound": "Cc1cc(NS(=O)(=O)Cc2ccccc2C(F)(F)F)cc(C)c1S(=O)(=O)C[N+](=O)[O-]", "note": "[Example 48, N-[3,5-Dimethyl-4-[(nitromethyl)sulphonyl]phenyl]-(2-trifluoromethylphenyl)methanesulphonamide]", "melting point": "146 to 148 °C"}
